For 19 compounds, IC50 results are on record in patent US9493474B2, “Inhibitors of the renal outer medullary potassium channel” (Merck Sharp & Dohme Corp., priority 2011, dated 2016).

Usually IC50 stands for the point on the concentration scale where inhibition reaches its midpoint.

In one test the target is hROMK (hKir1.1) (Homo sapiens (Human), UniProt P48048). In words: Thallium Flux Assay. The class given is cell-based. The conditions noted are these: HEK293 cells stably expressing hROMK (hKir1.1); FLIPR-Tetra, 30 min compound incubation. The source says:
(§1) Several assays may be used to measure functional inhibition of the ROMK channel by compounds of the instant invention. One assay that can be used is an electrophysiology assay that measures the electrical current that is generated as potassium permeates through the channel. Another ROMK functional assay makes use of the ability of thallium to permeate through open ROMK channels and increase the fluorescence of a dye previously loaded into the cells. Under control conditions, cells loaded with dye and exposed to thallium-containing medium display a time-dependent increase in fluorescence, the rate of which depends on number of functional channels. When cells are incubated in the presence of a channel inhibitor, the increase in fluorescence is attenuated in a concentration-dependent manner, and IC50 values of inhibition by compounds can be accurately determined. This assay has been established with cell lines expressing either human, or rat ROMK channels, and operates in 384-well format.
HEK293 cells stably expressing hROMK (hKir1.1) were grown at 37° C. in a 10% CO2 humidified incubator in complete growth media: Dulbecco's Modified Eagle Medium supplemented with non-essential amino acids, Penicillin/Streptomycin/Glutamine, G418 and FBS. At >80% confluency, the media was aspirated from the flask and the sample was rinsed with 10 ml Calcium/Magnesium-free PBS. […] To dislodge the cell, the side of the flask was gently banged with a hand. The cells were triturated completely and then transferred to 25 ml complete media. The sample was then centrifuged at 1,500 rpm for 6 minutes, followed by resuspension in complete growth media and then cell concentration was determined. […] Under ideal growth conditions and appropriate tissue culture practices, this cell line is stable for 40-45 passages.
• FluxOR™ Reagent (Component A) • FluxOR™ Assay Buffer (Component B)—10× Concentrate • PowerLoad™ Concentrate (Component C)—100× Concentrate • Probenecid (Component D)—Lyophilized sample is kept at −20° C. Water soluble, 100× after solubilization in 1 ml water. […] Store at 4° C. • Thallium sulfate (Tl2SO4) Concentrate (Component G)—50 mM in water. […] Can be stored at room temperature • Stimulant Buffer (prepared at 5× final concentration in 1× FluxOR™ Chloride-Free Buffer): 7.5 mM Thallium sulfate and 0.75 mM Potassium sulfate (to give a final assay concentration of 3 mM Thallium/0.3 mM Potassium). Store at 4° C. when not in use. If kept sterile, this solution is good for months. Assay Protocol—
The ROMK channel functional thallium flux assay is performed in 384 wells, using the FLIPR-Tetra instrument. HEK-hKir1.1 cells are seeded in Poly-D-Lysine microplates and kept in a 37° C.-10% CO2 incubator overnight. On the day of the experiment, the growth media is replaced with the FluxOR™ reagent loading buffer and incubated, protected from light, at ambient temperature (23-25° C.) for 90 min. The loading buffer is replaced with assay buffer±test compound followed by 30 min incubation at ambient temperature, where the Thallium/Potassium stimulant is added to the microplate.
• 1. Seed HEK-hKir1.1 cells (50 μl at 20,000 cells/well) in 384-well PDL coated Microplates • 2. Allow cells to adhere overnight in humidified 37° C./10% CO2 incubator • 3. Completely remove cell growth media from microplate and replace with 25 μl loading buffer • 4. Incubate Microplate at room temperature, protected form light, for 90 min • 5. Remove loading buffer and replace with 25 μl 1× Assay Buffer±test compound. • 6. Incubate microplate at room temperature, protected form light, for 30 min • 7. […] Excitation=400 nm, Emission=460 & 580 nm. Collect data for 10 min. Data Calculation—
The fluorescence intensity of wells containing 3 μM of a standard control ROMK inhibitor of the present invention is used to define the ROMK-sensitive component of thallium flux. Fluorescence in the presence of test compounds is normalized to control values to provide % fluorescence change.

For another test, the target named is Kir1.1 (ROMK1) (Homo sapiens (Human), UniProt P48048). In words: Electrophysiology Assay (whole cell voltage clamp, IonWorks Quattro). The class given is cell-based. Particulars: Chinese hamster ovary cells stably expressing Kir1.1; block at voltage step to 0 mV, 6 minutes compound incubation; read-out: EP Assay IC50.
Sequence of Kir1.1 (ROMK1) (P48048 whole entry, species assumed): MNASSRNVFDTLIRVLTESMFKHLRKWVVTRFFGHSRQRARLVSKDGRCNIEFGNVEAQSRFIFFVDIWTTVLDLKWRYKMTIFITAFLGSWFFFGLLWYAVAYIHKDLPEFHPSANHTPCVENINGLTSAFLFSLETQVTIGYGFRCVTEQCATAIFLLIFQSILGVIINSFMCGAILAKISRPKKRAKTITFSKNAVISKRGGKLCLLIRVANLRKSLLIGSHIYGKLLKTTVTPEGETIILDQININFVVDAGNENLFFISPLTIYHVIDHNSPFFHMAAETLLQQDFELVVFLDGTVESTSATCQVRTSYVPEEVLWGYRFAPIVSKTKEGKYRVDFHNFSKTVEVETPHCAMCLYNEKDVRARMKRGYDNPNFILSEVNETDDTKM
From the text: as §1
Block of Kir1.1 (ROMK1) currents was examined by whole cell voltage clamp (Hamill et. al. Pfluegers Archives 391:85-100 (1981)) using the IonWorks® Quattro automated electrophysiology platform (Molecular Devices, Sunnyvale, Calif.). Chinese hamster ovary cells stably expressing Kir1.1 channels were maintained in T-75 flasks in cell culture media in a humidified 10% CO2 incubator at 37° C. Prior to an experiment, Kir1.1 expression was induced by overnight incubation with 1 mM sodium butyrate. On the day of the experiment, cells were dissociated with 2.5 ml of Versene™ (Invitrogen 15040-066) for approximately 6 minutes at 37° C. and suspended in 10 ml of bath solution containing (in mM): 150 NaCl, 10 KCl, 2.7 CaCl2, 0.5 MgCl2, 5 HEPES, pH 7.4. After centrifugation, the cell pellet was resuspended in approximately 4.0 ml of bath solution and placed in the IonWorks® instrument. The intracellular solution consisted of (in mM): 80 K gluconate, 40 KCl, 20 KF, 3.2 MgCl2, 3 EGTA, 5 Hepes, pH 7.4. Electrical access to the cytoplasm was achieved by perforation in 0.13 mg/ml amphotericin B for 4 minutes. Amphotericin B (Sigma A-4888) was prepared as a 40 mg/ml solution in DMSO.
Voltage protocols and current recordings were performed using the IonWorks® HT software/hardware system. Currents were sampled at 1 kHz. No correction for liquid junction potentials was used. The test pulse, consisting of a 100 ms step to 0 mV from a holding potential of −70 mV, followed by a 100 ms voltage ramp from −70 mV to +70 mV, was applied before and after a 6 minutes compound incubation period. Test compounds were prepared by diluting DMSO stock solutions into the bath solution at 3× the final concentration and placed in the instrument in 96-well polypropylene plates. Current amplitudes were measured using the IonWorks® software. To assess compound potency, the fractional block during the voltage step to 0 mV was calculated in Microsoft® Excel (Microsoft, Redmond, Calif.), and dose-response curves were fitted with Igor Pro 4.0 (WaveMetrics, Lake Oswego, Oreg.).
For orientation: The patch-clamp technique gives a direct electrical read-out from membranes.

Sequence of hROMK (hKir1.1) (P48048 whole entry): as the sequence (P48048 whole entry, species assumed) above

Turning to `Cc1c([C@@H](O)CN2CCC3CN(CC(O)c4ccc(C#N)cn4)CC32)ccc2c1COC2=O` (single isomer, unassigned) [Example 7A], the figures for the IC50 at hROMK (hKir1.1) and at Kir1.1 (ROMK1) were 152 nM and 47 nM, respectively.

As for `Cc1c([C@@H](O)CN2CCC3CN(CC(O)c4ccc(C#N)cn4)CC32)ccc2c1COC2=O` (single isomer, unassigned) [Example 7B], the results for the IC50 on hROMK (hKir1.1) and at Kir1.1 (ROMK1) were 566 nM and 2400 nM, respectively.

On to `Cc1c([C@@H](O)CN2CCC3CN(S(=O)(=O)c4ccc(C#N)cc4)CC32)ccc2c1COC2=O` (single isomer, unassigned) [Example 8B], for which, on hROMK (hKir1.1), the midpoint of inhibition, the IC50, lay at 662 nM.

As to `Cc1c([C@@H](O)CN2CCC3(CCCN3C[C@H](O)c3ccc4c(c3C)COC4=O)C2)ccc2c1COC2=O` (single isomer, unassigned) [Example 10B], the IC50 turned out to be 76 nM against hROMK (hKir1.1) and 184 nM at Kir1.1 (ROMK1).

At hROMK (hKir1.1), `Cc1c([C@@H](O)CN2C(C)CC3CN(CC(O)c4ccc(C#N)cn4)CC32)ccc2c1COC2=O` (single isomer, unassigned) [Example 11A] gave an IC50 of 93 nM.

As to `Cc1c([C@@H](O)CN2C(C)CC3CN(CC(O)c4ccc(C#N)cn4)CC32)ccc2c1COC2=O` (single isomer, unassigned) [Example 11B], the IC50 at hROMK (hKir1.1) came to 91 nM; at Kir1.1 (ROMK1), 53 nM.

Regarding `Cc1cc(S(=O)(=O)N2CCCC23CCN(C[C@H](O)c2ccc4c(c2C)COC4=O)C3)ccc1-n1cnnn1` (single isomer, unassigned) [Example 18A], the IC50 was 138 nM against hROMK (hKir1.1) and 79 nM at Kir1.1 (ROMK1).

`Cc1cc(S(=O)(=O)N2CCCC23CCN(C[C@H](O)c2ccc4c(c2C)COC4=O)C3)ccc1-n1cnnn1` (single isomer, unassigned) [Example 18B]: the IC50 against hROMK (hKir1.1) came out at 294 nM; at Kir1.1 (ROMK1) it was 125 nM.

At hROMK (hKir1.1), `Cc1c([C@@H](O)CN2CC3CN(CC(O)c4ccc(C#N)cn4)C3C2)ccc2c1COC2=O` (single isomer, unassigned) [Example 22] gave an IC50 of 916 nM.

`Cc1c([C@@H](O)CN2CC3CN(CC(O)c4ccc(C#N)cn4)C3C2)ccc2c1COC2=O` (single isomer, unassigned) [Example 23]: the IC50 is 540 nM against hROMK (hKir1.1) and 1800 nM on Kir1.1 (ROMK1).

Turning to `Cc1c([C@@H](O)CN2CCCC3(CCN(C[C@H](O)c4ccc5c(c4C)COC5=O)C3)C2)ccc2c1COC2=O` (stereo partly drawn) [Example 1, 5,5′-{2,7-Diazaspiro[4.5]decane-2,7-diylbis[(1R)-1-hydroxyethane-2,1-diyl]}bis(4-methyl-2-benzofuran-1(3H)-one)], the values for the IC50 against hROMK (hKir1.1) and at Kir1.1 (ROMK1) were 274 nM and 117 nM, respectively.

For `Cc1c([C@@H](O)CN2CC3CCN(C(=O)c4ccc(C#N)cn4)CC3C2)ccc2c1COC2=O` (stereo partly drawn) [Example 3, 6-({2-[(2R)-2-Hydroxy-2-(4-methyl-1-oxo-1,3-dihydro-2-benzofuran-5-yl)ethyl]octahydro-5H-pyrrolo[3,4-c]pyridine-5-yl}carbonyl)pyridine-3-carbonitrile], the IC50 at hROMK (hKir1.1) was 865 nM.

`Cc1c([C@@H](O)CN2CCCC3(CCCN3C[C@H](O)c3ccc4c(c3C)COC4=O)C2)ccc2c1COC2=O` (stereo partly drawn) [Example 5, 5,5′-{1,7-Diazaspiro[4.5]decane-1,7-diylbis[(1R)-1-hydroxyethane-2,1-diyl]}bis(4-methyl-2-benzofuran-1(3H)-one)]: the results for the IC50 on hROMK (hKir1.1) and at Kir1.1 (ROMK1) were 737 nM and 348 nM, respectively.

`Cc1c([C@@H](O)CN2CCCC3(CCCN(C[C@H](O)c4ccc5c(c4C)COC5=O)C3)C2)ccc2c1COC2=O` [Example 6, 5,5′-{2,8-Diazaspiro[5.5]undecane-2,8-diylbis[(1R)-1-hydroxyethane-2,1-diyl]}bis(4-methyl-2-benzofuran-1(3H)-one)]: the IC50 stood at 359 nM on hROMK (hKir1.1) and 201 nM at Kir1.1 (ROMK1).

In the case of `N#Cc1ccc(S(=O)(=O)N2CCC3CN(C[C@H](O)c4ccc5c(c4)COC5=O)CC32)cc1` (stereo partly drawn) [Example 9, 4-(5-((R)-2-Hydroxy-2-(1-oxo-1,3-dihydroisobenzofuran-5-yl)ethyl)hexahydropyrrolo[3,4-b]pyrrol-1(2H)-ylsulfonyl)benzonitrile], the IC50 against hROMK (hKir1.1) stood at 234 nM.

With `Cc1c([C@@H](O)CN2CCC3(CCCN(C(=O)c4ccc(-n5cnnn5)nc4)C3)C2)ccc2c1COC2=O` (stereo partly drawn) [Example 14, 5-((1R)-2-(7-(6-(1H-tetrazol-1-yl)nicotinoyl)-2,7-diazaspiro[4.5]decan-2-yl)-1-hydroxyethyl)-4-methylisobenzofuran-1(3H)-one], the IC50 came to 241 nM against hROMK (hKir1.1) and 108 nM at Kir1.1 (ROMK1).

In the case of `Cc1c([C@@H](O)CN2CC3CCN(C(=O)c4ccc(-n5cnnn5)nc4)CC3C2)ccc2c1COC2=O` (stereo partly drawn) [Example 15, 5-((1R)-2-(5-(6-(1H-Tetrazol-1-yl)nicotinoyl)-1H-pyrrolo[3,4-c]_yridine-2(3H,3aH,4H,5H,6H,7H,7aH)-yl)-1-hydroxyethyl)-4-methylisobenzofuran-1(3H)-one], the values for the IC50 against hROMK (hKir1.1) and on Kir1.1 (ROMK1) were 103 nM and 200 nM, respectively.

With `Cc1c([C@@H](O)CN2CCC3CN(C(=O)c4ccc(-n5cnnn5)cn4)CC32)ccc2c1COC2=O` (stereo partly drawn) [Example 16, 5-((1R)-2-(5-(5-(1H-tetrazol-1-yl)picolinoyl)hexahydropyrrolo[3,4-b]pyrrol-1(2H)-yl)-1-hydroxyethyl)-4-methylisobenzofuran-1(3H)-one], the IC50 against hROMK (hKir1.1) amounted to 602 nM; on Kir1.1 (ROMK1), 850 nM.

At hROMK (hKir1.1), `Cc1c([C@@H](O)CN2CCC3CN(S(=O)(=O)c4ccc(-n5cnnn5)cc4)CC32)ccc2c1COC2=O` (stereo partly drawn) [Example 20, 5-((1R)-2-(5-(4-(1H-Tetrazol-1-yl)phenylsulfonyl)hexahydropyrrolo[3,4-b]pyrrol-1(2H)-yl)-1-hydroxyethyl)-4-methylisobenzofuran-1(3H)-one] came in with an IC50 of 1050 nM.
